US9567318B2, “Substituted pyrimidine compounds and uses thereof” (Memorial Sloan-Kettering Cancer Center, priority 2009, dated 2017)

Legend:
[1] = tested on: 359 kinases; experiment: Kinase screen (scanMAX, Ambit); assay type: binding
Protocol: FIG. 6. YK5 inhibits core biochemical functions of Hsp70s and disrupts the Hsp90/Hsp70 interaction. a) Refolding of denatured luciferase by Hsc70 and DJA2 at 30° C. was measured for the indicated times in the presence of YK5 (100 μM) or vehicle (left), or at 60 min in the presence of indicated concentrations of YK5 (right). b) Hsc70 ATPase rates were measured for reactions at 30° C. with the indicated combinations of Hsc70 and co-chaperones in the presence of vehicle (DMSO) or YK5 (100 μM). ADP production was monitored by thin layer chromatography separation of radiolabeled ADP from ATP and phosphorimaging analysis (lower). The data are consistent with those obtained from multiple repeat experiments (n≧2). c,d) SKBr3 cells were treated for 24 h with vehicle or indicated concentrations of YK5 (c) or for the indicated times with YK5 (10 μM) (d). Proteins isolated with anti-Hsp90 and Hsp70s antibodies (IP: Hsp90 or Hsp70), or present in the cell extract (Lysate) were analyzed by WB. […] Proteins were applied to a native gel and analyzed by immunoblotting. […]
Kinase Screen. […] The kinase concentration in the eluates was measured by qPCR. KINOMEscan's selectivity score (S) is a quantitative measure of compound selectivity. It is calculated by dividing the number of kinases that bind to the compound by the total number of distinct kinases tested, excluding mutant variants. […]

[2] = tested on: Kasumi-1 cells; experiment: Apoptosis, acridine orange/ethidium bromide, Kasumi-1; assay type: cell-based, human; conditions: 10 μM, 24 h
Protocol: FIG. 13. YK5 has a higher apoptotic effect than Hsp90 inhibitors in select tumors. (a-d) Cells were treated with the indicated concentrations of inhibitors for the times presented. (a,b) Apoptotic cells were quantified by dual acridine orange/ethidium bromide staining as described in Methods. (c,d) Molecular markers of apoptosis (PARP cleavage) were analyzed in cells treated for 24 h with indicated concentrations of inhibitors (c) or for the indicated times with the indicated concentration of inhibitors (d) by western blotting. (e) MDAMB-468 cells were treated with vehicle, TNFα (20 ng/ml), YK5 (1 μM), pretreated with YK5 for 2 h before TNFα or co-treated, and cells were lysed for western blot analysis (left), or cell death was quantified by analyzing the hypodiploid population upon propidium iodine staining (right). […]
To determine whether cell death by YK5 was attributable to apoptosis, cells were treated with YK5 and effects on morphology, as well as on several effectors and mediators of apoptosis were analyzed (FIG. 13). To quantify the number of cells undergoing apoptosis, cells were stained with acridine orange/ethidium bromide (AO/EB) and analyzed under a fluorescence microscope for the percentage of viable, apoptotic (early and late) and necrotic cells. […]
Apoptosis-Acridine Orange/Ethidium Bromide. […] Percentage of apoptotic cells was determined from 200-300 cells counted in each group.

[3] = tested on: primary human AML cells (blasts, leukemia stem cells); experiment: Treatment of primary AML cells; assay type: cell-based; conditions: 24 h
Protocol: FIG. 20. Treatment of primary AML cells with YK5. YK5 kills both blast and cancer stem cells but not normal cells. Cells were treated with increasing concentrations of YK5 for 24 h. (a-b) % viability relative to untreated control is shown. Open bars: “Other” represent normal cells in the same patient (non-blast), Gray bars: Blasts (CD45 dim). red bars: leukemia stem cells (LSCs) (CD34+CD38-CD123+). (c) CFU (Colony forming units) decrease after treatment of primary AML cells with YK5. **p<0.001.
Strikingly, a high sensitivity of phenotypically described leukemia stem cells and of total leukemic blasts was observed (FIG. 20b; red vs. gray bars). […] Thus, a compound with cancer stem cell toxicity, such as YKs, is of significant value to improving cancer therapy.
Primary Cell Isolation and Culture. Primary human AML cells were obtained with informed consent. All manipulation and analysis of specimens was approved by the Weill Cornell Medical College Institutional Review Board. Mononuclear cells were isolated using Ficoll-Plaque (Pharmacia Biotech, Piscataway, N.Y.) density gradient separation. In some cases, cells were cryopreserved in freezing medium consisting of Iscove's modified Dulbecco medium (IMDM), 40% fetal bovine serum (FBS), and 10% dimethylsulfoxide (DMSO) or in CryoStor™ CS-10 (Biolife).

C=CC(=O)Nc1cc(N)nc(Sc2c(OC)nc(N3CCN(C)CC3)nc2OC)n1 [YK5, N-(6-amino-2-(4,6-dimethoxy-2-(4-methylpiperazin-1-yl)pyrimidin-5-ylthio)pyrimidin-4-yl)acrylamide]
activity against 359 kinases ([1]; 10 μM): inert | c-Met in the kinase screen ([1]; TREEspot interaction map): potential low affinity kinase hit | cells undergoing apoptosis [2]: 70% | cell death in primary AML specimens [3]: induced potent cell death in blast, stem and progenitor populations
